Experiment [1] has as its system human epidermoid carcinoma cell line KB-8511. Put plainly: Growth inhibition of KB-8511 cells (P-gp170-overexpressing multidrug-resistant subline), 72 h, methylene blue staining. It is filed as cell-based.
Experiment [2] has as its system human epidermoid carcinoma cell line KB-31. Description: Growth inhibition of KB-31 cells, 72 h, methylene blue staining. The experiment is classed as cell-based. The note with it: KB-31, 72 h exposure. How it is done:
Determination of IC50 Values Against Human Epidermoid Carcinoma Cell Lines KB-31
Cells are exposed to compounds for 72 h. Cell numbers are estimated by quantification of protein content of fixed cells by methylene blue staining.

Setting [3] is: KB-8511 (P-gp170-overexpressing), 72 h exposure.
Setting [4] is: KB-8511, 72 h exposure, class symbols.

The structures appear in SMILES notation. pIC50: −log10 of the molar value. Several values for one entry are separate records, joined by “and”; a condition that tells them apart may be missing. Equal values may be shown once. A value given as a limit tells only on which side of the number the result lay.

A word on the pIC50: it is the negative decadic logarithm of the IC50, by convention in mol/L. A high value points to a low IC50. For the molecule `C/C(=C\c1csc(C)n1)[C@@H]1C[C@@H]2OC(=O)NC2CCCC(C)[C@H](O)C(C)C(=O)C(C)(C)C(O)CC(=O)O1` (stereo partly shown) [Compound 1], the pIC50 was less than 6.00 in experiment [1] (Homo sapiens, KB-8511, 72 h exposure, class symbols) and 6.12 to 6.30 in experiment [2] (Homo sapiens, KB 3-1, 72 h, class symbols).
Regarding `CC(=Cc1csc(C)n1)C1CC2OC(C)=NC2CCCC(C)C(O)C(C)C(=O)C(C)(C)C(O)CC(=O)O1` (stereo not shown) [Compound 4a], the negative logarithm of the IC50 (pIC50) in experiment [1] (setting [3]), in experiment [1] (setting [4]), in experiment [2] and in experiment [2] (class symbols) was less than 6.00 in each case.
Turning to `CCC1=NC2CCCC(C)C(O)C(C)C(=O)C(C)(C)C(O)CC(=O)OC(C(C)=Cc3csc(C)n3)CC2O1` (stereo not shown) [Compound 4b], the pIC50 in experiment [1] (setting [3]) is 5.26; in experiment [1] (setting [4]) it was less than 6.00; in experiment [2] it was 5.73; in experiment [2] (class symbols) it was less than 6.00.
For `CCCCC1=NC2CCCC(C)C(O)C(C)C(=O)C(C)(C)C(O)CC(=O)OC(C(C)=Cc3csc(C)n3)CC2O1` (stereo not shown) [Compound 4c], the pIC50 is 6.03 and 6.00 in experiment [1] (setting [3]); 6.00 to 6.12 in experiment [1] (setting [4]); 6.46 and 6.41 in experiment [2]; 6.30 to 6.60 in experiment [2] (class symbols).
Regarding `CC(=Cc1csc(C)n1)C1CC2OC(C(C)(C)C)=NC2CCCC(C)C(O)C(C)C(=O)C(C)(C)C(O)CC(=O)O1` (stereo not shown) [Compound 4d], the pIC50 in experiment [1] (setting [3]) was 7.26; in experiment [1] (setting [4]), 6.60 to 7.00; in experiment [2], 7.92; in experiment [2] (class symbols) it was 6.60 to 7.00.
`COC1=NC2CCCC(C)C(O)C(C)C(=O)C(C)(C)C(O)CC(=O)OC(C(C)=Cc3csc(C)n3)CC2O1` (stereo not shown) [Compound 4e]: the pIC50 in experiment [1] (setting [3]) was 5.26; in experiment [1] (setting [4]) it was less than 6.00; in experiment [2], 5.90; in experiment [2] (class symbols), less than 6.00.
With `C/C(=C\c1csc(C)n1)[C@@H]1C[C@@H]2OC(=O)NC2CCCC(C)[C@H](O)C(C)C(=O)C(C)(C)C(O)CC(=O)O1` (stereo partly shown) [Compound 4h], the pIC50 in experiment [1] (Homo sapiens, KB-8511 (P-gp170-overexpressing), 72 h exposure) is less than 5.00; in experiment [2] (Homo sapiens, KB 3-1, 72 h) it was 6.21; in experiment [2] it was 6.19.
`CC(=Cc1csc(C)n1)C1CC2OC(c3ccsc3)=NC2CCCC(C)C(O)C(C)C(=O)C(C)(C)C(O)CC(=O)O1` (stereo not shown) [Compound 5l]: the negative logarithm of the IC50 (pIC50) in experiment [1] (setting [3]) is 6.84; in experiment [1] (KB-8511, 72 h exposure, class symbols, listed as drawing 62), more than 7.00; in experiment [2], 7.38.
Take `CC(=Cc1csc(C)n1)C1CC2OC(c3ccncc3)=NC2CCCC(C)C(O)C(C)C(=O)C(C)(C)C(O)CC(=O)O1` (stereo not shown) [Compound 6a]: the pIC50 in experiment [1] (setting [3]) is 7.08; in experiment [1] (setting [4]), more than 7.00; in experiment [2] it was 7.52; in experiment [2] (class symbols) it was more than 7.00.
For the molecule `CC(=Cc1csc(C)n1)C1CC2OC(c3ccsc3)=NC2CCCC(C)C(O)C(C)C(=O)C(C)(C)C(O)CC(=O)O1` (stereo not shown) [drawing 72], the pIC50 in experiment [1] (setting [4]) was 6.60 to 7.00; in experiment [2] (class symbols), more than 7.00.
